Experimental data: patent US12077503B2, “Substituted cyclic amides and their use as herbicides” (FMC CORPORATION, priority 2015, dated 2024)
Where two headings read alike, the source gives them in different places.

Key:
Type in all cases: in vivo
Kochia (Kochia scoparia) [1] = assay: Test A postemergence; settings: Bassia scoparia, post-emergence, 240 h; for pest or weed control at 125 g/ha: 125 g ai/ha, visual injury vs untreated controls after approx. 10 d, 0 = no effect, 100 = complete control, read-out: Kochia plant response rating (0 to 100 scale); for pest or weed control at 500 g/ha: 500 g ai/ha
How it was run: (§1)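 Preemergence soil spray on seeded pots or post-emergence spray on 1–2 leaf plants, in loam–sand blend. Greenhouse ~10 d. Visual rating 0–100 against untreated plants.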

[2] = system: wheat (Triticum aestivum); assay: Test A postemergence; settings: Triticum aestivum, post-emergence, 240 h; for plant injury at 500 g/ha: 500 g ai/ha
How it was run: as §1

[3] = system: pigweed (Amaranthus retroflexus); assay: Test A postemergence; settings: Amaranthus retroflexus, post-emergence, 240 h; for pest or weed control at 125 g/ha: 125 g ai/ha, visual injury vs untreated controls after approx. 10 d, 0 = no effect, 100 = complete control, read-out: Pigweed plant response rating (0 to 100 scale); for pest or weed control at 500 g/ha: 500 g ai/ha
How it was run: as §1

[4] = system: giant foxtail (Setaria faberii); assay: Test A postemergence; settings: Setaria faberi, post-emergence, 240 h; for pest or weed control at 125 g/ha: 125 g ai/ha, visual injury vs untreated controls after approx. 10 d, 0 = no effect, 100 = complete control, read-out: Foxtail, Giant plant response rating (0 to 100 scale); for pest or weed control at 500 g/ha: 500 g ai/ha
How it was run: as §1

corn (Zea mays) = assay: Test A postemergence; settings: Zea mays, post-emergence, 240 h; for plant injury at 125 g/ha: 125 g ai/ha, visual injury vs untreated controls after approx. 10 d, 0 = no effect, 100 = complete control, read-out: Corn plant response rating (0 to 100 scale)
How it was run: as §1

[5] = system: ragweed (common ragweed, Ambrosia elatior); assay: Test A postemergence; settings: Ambrosia artemisiifolia, post-emergence, 240 h; for pest or weed control at 125 g/ha: 125 g ai/ha, visual injury vs untreated controls after approx. 10 d, 0 = no effect, 100 = complete control, read-out: Ragweed plant response rating (0 to 100 scale); for pest or weed control at 500 g/ha: 500 g ai/ha
How it was run: as §1

[6] = system: blackgrass (Alopecurus myosuroides); assay: Test A postemergence; settings: Alopecurus myosuroides, post-emergence, 240 h; for pest or weed control at 125 g/ha: 125 g ai/ha, visual injury vs untreated controls after approx. 10 d, 0 = no effect, 100 = complete control, read-out: Blackgrass plant response rating (0 to 100 scale); for pest or weed control at 500 g/ha: 500 g ai/ha
How it was run: as §1

[7] = system: Galium (catchweed bedstraw, Galium aparine); assay: Test A postemergence; settings: Galium, post-emergence, 240 h; for pest or weed control at 125 g/ha: 125 g ai/ha, visual injury vs untreated controls after approx. 10 d, 0 = no effect, 100 = complete control, read-out: Galium plant response rating (0 to 100 scale); for pest or weed control at 500 g/ha: 500 g ai/ha
How it was run: as §1

[8] = system: ryegrass, Italian (Italian ryegrass, Lolium multiflorum); assay: Test A postemergence; settings: Lolium multiflorum, post-emergence, 240 h; for pest or weed control at 125 g/ha: 125 g ai/ha, visual injury vs untreated controls after approx. 10 d, 0 = no effect, 100 = complete control, read-out: Ryegrass, Italian plant response rating (0 to 100 scale); for pest or weed control at 500 g/ha: 500 g ai/ha
How it was run: as §1

[9] = system: barnyardgrass (Echinochloa crus-galli); assay: Test A postemergence; settings: Echinochloa crus-galli, post-emergence, 240 h; for pest or weed control at 125 g/ha: 125 g ai/ha, visual injury vs untreated controls after approx. 10 d, 0 = no effect, 100 = complete control, read-out: Barnyardgrass plant response rating (0 to 100 scale); for pest or weed control at 500 g/ha: 500 g ai/ha
How it was run: as §1

Kochia (Kochia scoparia) [10] = assay: Test A preemergence; settings: Bassia scoparia, pre-emergence, 240 h, preemergence, 0 to 100 scale where 0 is no effect and 100 is complete control, read-out: Kochia plant response rating; for pest or weed control at 125 g/ha: 125 g ai/ha, visual injury rating, approximately 10 d; for pest or weed control at 500 g/ha: 500 g ai/ha
How it was run: as §1

[11] = system: pigweed (Amaranthus retroflexus); assay: Test A preemergence; settings: Amaranthus retroflexus, pre-emergence, 240 h, preemergence, 0 to 100 scale where 0 is no effect and 100 is complete control, read-out: Pigweed plant response rating; for pest or weed control at 125 g/ha: 125 g ai/ha, visual injury rating, approximately 10 d; for pest or weed control at 500 g/ha: 500 g ai/ha
[12] = system: giant foxtail (Setaria faberii); assay: Test A preemergence; settings: Setaria faberi, pre-emergence, 240 h, preemergence, 0 to 100 scale where 0 is no effect and 100 is complete control, read-out: Foxtail, Giant plant response rating; for pest or weed control at 125 g/ha: 125 g ai/ha, visual injury rating, approximately 10 d; for pest or weed control at 500 g/ha: 500 g ai/ha
How it was run: as §1

[13] = system: ragweed (common ragweed, Ambrosia elatior); assay: Test A preemergence; settings: Ambrosia artemisiifolia, pre-emergence, 240 h, preemergence, 0 to 100 scale where 0 is no effect and 100 is complete control, read-out: Ragweed plant response rating; for pest or weed control at 125 g/ha: 125 g ai/ha, visual injury rating, approximately 10 d; for pest or weed control at 500 g/ha: 500 g ai/ha
How it was run: as §1

[14] = system: ryegrass, Italian (Italian ryegrass, Lolium multiflorum); assay: Test A preemergence; settings: Lolium multiflorum, pre-emergence, 240 h, preemergence, 0 to 100 scale where 0 is no effect and 100 is complete control, read-out: Ryegrass, Italian plant response rating; for pest or weed control at 125 g/ha: 125 g ai/ha, visual injury rating, approximately 10 d; for pest or weed control at 500 g/ha: 500 g ai/ha
How it was run: as §1

[15] = system: barnyardgrass (Echinochloa crus-galli); assay: Test A preemergence; settings: Echinochloa crus-galli, pre-emergence, 240 h, preemergence, 0 to 100 scale where 0 is no effect and 100 is complete control, read-out: Barnyardgrass plant response rating; for pest or weed control at 125 g/ha: 125 g ai/ha, visual injury rating, approximately 10 d; for pest or weed control at 500 g/ha: 500 g ai/ha
How it was run: as §1

Compound | pest or weed control at 125 g/ha (Kochia (Kochia scoparia) [1]; postemergence) | pest or weed control at 125 g/ha ([3]; postemergence) | pest or weed control at 125 g/ha ([4]; postemergence) | plant injury at 125 g/ha (corn (Zea mays); postemergence) | pest or weed control at 125 g/ha ([5]; postemergence) | pest or weed control at 125 g/ha ([6]; postemergence) | pest or weed control at 125 g/ha ([7]; postemergence) | pest or weed control at 125 g/ha ([8]; postemergence) | pest or weed control at 125 g/ha ([9]; postemergence) | pest or weed control at 125 g/ha (Kochia (Kochia scoparia) [10]) | pest or weed control at 500 g/ha (Kochia (Kochia scoparia) [10]) | pest or weed control at 125 g/ha [11] | pest or weed control at 500 g/ha [11] | pest or weed control at 125 g/ha [12] | pest or weed control at 500 g/ha [12] | pest or weed control at 125 g/ha [13] | pest or weed control at 500 g/ha [13] | pest or weed control at 125 g/ha [14] | pest or weed control at 500 g/ha [14] | pest or weed control at 125 g/ha [15] | other results
CN1C[C@H](c2ccc(C(F)(F)F)cc2)[C@@H](C(=O)Nc2ccccc2)C1=O [Compound 1253] | 60% | 0% | 80% | 0% | 0% | 30% | 50% | 40% | 90% | 80% | 80% | 50% | 80% | 100% | 100% | 40% | 60% | 20% | 60% | 90% | pest or weed control at 500 g/ha (Kochia (Kochia scoparia) [1]; Postemergence, visual injury, 0 to 100 scale (0 no effect, 100 complete control), approx. 10 d, read-out: Plant response rating, Kochia): 70%; plant injury at 500 g/ha ([2]; Postemergence, visual injury, 0 to 100 scale (0 no effect, 100 complete control), approx. 10 d, read-out: Plant response rating, Wheat): 50%; pest or weed control at 500 g/ha ([3]; Postemergence, visual injury, 0 to 100 scale (0 no effect, 100 complete control), approx. 10 d, read-out: Plant response rating, Pigweed): 30%; pest or weed control at 500 g/ha ([4]; Postemergence, visual injury, 0 to 100 scale (0 no effect, 100 complete control), approx. 10 d, read-out: Plant response rating, Foxtail, Giant): 90%; Corn plant response rating (crop injury, 0 = no effect, 100 = complete kill) at 500 g/ha (corn (Zea mays); Postemergence, 500 g ai/ha, visual injury, 0 to 100 scale (0 no effect, 100 complete control), approx. 10 d): 70%; pest or weed control at 500 g/ha ([5]; Postemergence, visual injury, 0 to 100 scale (0 no effect, 100 complete control), approx. 10 d, read-out: Plant response rating, Ragweed): 0%; pest or weed control at 500 g/ha ([6]; Postemergence, visual injury, 0 to 100 scale (0 no effect, 100 complete control), approx. 10 d, read-out: Plant response rating, Blackgrass): 50%; pest or weed control at 500 g/ha ([7]; Postemergence, visual injury, 0 to 100 scale (0 no effect, 100 complete control), approx. 10 d, read-out: Plant response rating, Galium): 60%; pest or weed control at 500 g/ha ([8]; Postemergence, visual injury, 0 to 100 scale (0 no effect, 100 complete control), approx. 10 d, read-out: Plant response rating, Ryegrass, Italian): 60%; pest or weed control at 500 g/ha ([9]; Postemergence, visual injury, 0 to 100 scale (0 no effect, 100 complete control), approx. 10 d, read-out: Plant response rating, Barnyardgrass): 100%; pest or weed control at 500 g/ha [15]: 100%
CN1CC[C@H](c2ccc(C(F)(F)F)cc2)[C@@H](C(=O)Nc2ccccc2C(F)(F)F)C1=O [Compound 1224] | 0% | 0% | 30% | 0% | 0% | 0% | 0% | 0% | 70% | 0% | 0% | 50% | 70% | 80% | 90% | 0% | 20% | 0% | 20% | 40% | pest or weed control at 500 g/ha (Kochia (Kochia scoparia) [1]; postemergence, 0 to 100 scale, 0 is no effect, 100 is complete control, read-out: Kochia plant response rating): 0%; plant injury at 125 g/ha ([2]; 125 g ai/ha, postemergence, visual injury vs untreated controls after approx. 10 d, 0 = no effect, 100 = complete control, read-out: Wheat plant response rating (0 to 100 scale)): 0%; plant injury at 500 g/ha ([2]; postemergence, 0 to 100 scale, 0 is no effect, 100 is complete control, read-out: Wheat plant response rating): 0%; pest or weed control at 500 g/ha ([3]; postemergence, 0 to 100 scale, 0 is no effect, 100 is complete control, read-out: Pigweed plant response rating): 20%; pest or weed control at 500 g/ha ([4]; postemergence, 0 to 100 scale, 0 is no effect, 100 is complete control, read-out: Foxtail, Giant plant response rating): 70%; plant injury at 500 g/ha (corn (Zea mays); 500 g ai/ha, postemergence, 0 to 100 scale, 0 is no effect, 100 is complete control, read-out: Corn plant response rating): 0%; pest or weed control at 500 g/ha ([5]; postemergence, 0 to 100 scale, 0 is no effect, 100 is complete control, read-out: Ragweed plant response rating): 0%; pest or weed control at 500 g/ha ([6]; postemergence, 0 to 100 scale, 0 is no effect, 100 is complete control, read-out: Blackgrass plant response rating): 0%; pest or weed control at 500 g/ha ([7]; postemergence, 0 to 100 scale, 0 is no effect, 100 is complete control, read-out: Galium plant response rating): 40%; pest or weed control at 500 g/ha ([8]; postemergence, 0 to 100 scale, 0 is no effect, 100 is complete control, read-out: Ryegrass, Italian plant response rating): 0%; pest or weed control at 500 g/ha ([9]; postemergence, 0 to 100 scale, 0 is no effect, 100 is complete control, read-out: Barnyardgrass plant response rating): 90%; pest or weed control at 500 g/ha [15]: 80%
